From patent publication US10662445B2, “Process for the production of bio-butanol by fermentation of glycosidic waste matter” (priority 2018, dated 2020)
Each block holds one molecule with its values, some of them ahead of it.

What was measured:
[1] = Organic-solvent extraction of microbial inhibitors from an agro-waste hydrolysate mimic; format: physicochemical; conditions: for Inhibitor extraction, phase separation by centrifugal force / Inhibitor extraction, phase separation by separating funnel: solvent bis-(2-ethylhexyl) sebacate; for Ferulic acid removal / Furfural removal / HMF removal / Syringaldehyde removal / TRS removal / Vanillic acid removal / Vanillin removal / TRS (total reducing sugar) after extraction: Vaqueous:Vorganic = 2:1; for TRS (total reducing sugar) after extraction: standard 52.00 g/L
Text: Media composition was designed according to the inhibitory compound limit concentration reported in the literature for bio-butanol producing solventogenic Clostridia (Baral et al. Microbial inhibitors: formation and effects on acetone-butanol-ethanol fermentation of lignocellulosic biomass. Applied microbiology and biotechnology, Vol. 98(22), 2014: 9151-9172; Qureshi et al. Production of butanol (a biofuel) from agricultural residues: Part I—Use of barley straw hydrolysate. Biomass and bioenergy, Vol. 34(4), 2010: 559-565). Different volume ratio of the hydrolysate mimic and organic solvents, such as (5:1), (3:1), (2:1), (1:1) and (1:2) (vaqueous:vorganic) were tried in order to minimize extractant expenditure. Organic and aqueous phase mixing was carried out by a propeller impeller. Rotation rate (100, 200, 250, 300 and 400 rpm) and operation-time (15, 30, 45, 60 and 90 min) were tested at room temperature (25° C.). A comparative study between settling through separating funnel vs. centrifugal force assisted separation was also made to guarantee an optimal recovery of the broth phase.
A complex mixture of several reduced sugar compounds (e.g. as glucose, fructose, and xylose) and microbial inhibitors (furfural, HMF, acetic acid, levulinic acid, vanillin, vanillic acid, feluric acid and syringaldehyde) were produced during the pretreatment step (hydrolysis). In order to analyse these compounds, liquid samples were collected and analyzed using liquid chromatography-mass spectrometry (LC-MS) and liquid chromatography-tandem mass spectrometry (LC/MS-MS) equipped with a ZORBAX Carbohydrate column (5 μm, 150×4.6 mm ID column) (Agilent Technologies, USA) with D6 glucose as the internal standard and a Biobasic-18 column (5 μm, 250×4.6 mm ID) (Agilent Technologies, USA) with phenylethanol-D5 as the internal standard. […] Methanol water (8:2) and acetonitrile water (8.5:1.5) were used to dilute the sample before inhibitor and carbohydrate analysis. […]

[2] = system: solventogenic Clostridia (ABE fermentation); conditions: cited from earlier work; for Inhibitory concentration: ABE fermentation
cellulase enzyme = conditions: cited from earlier work
[3] = system: Clostridium acetobutylicum NRRL B-582 (ATCC-824) (CA); assay: Bio-compatibility (solvent toxicity) batch ABE fermentation, CA; conditions: for ABE / Butanol: CA
Experimental: (§1) Clostridium acetobutylicum NRRL B-582 (ATCC-824) (CA) and Clostridium beijerinckii NRRL B-466(CB) were considered for current investigation to produce bio-butanol from different brewery industry wastes. They were kindly provided by Agricultural Research Station, USDA (USA). The microorganisms were grown and maintained in peptone-yeast extract-glucose (PYG) media under anaerobic condition (vegetative growth) at 37±1° C. and 150 rpm for 24 h and 17 h, respectively, before being transferred into the fermentation medium. The medium (g L^−1) comprised: glucose (10); yeast extract (10); peptone (5); tryptone (5); cysteine-HCl (0.5); K2HPO4 (2.04); KH2PO4 (0.04); FeSO4*7H2O (1.1×10^−3); CaCl2 (8×10^−3); MgSO4*7H2O (0.0192); NaCl (0.08); and NaHCO3 (0.4). 125 mL serum bottles (working volume 50 mL) were used for both butanol production and inoculum development (Maiti et al., January 2016, Maiti et al., August 2015). Anaerobic conditions were maintained within the bottle by sparging N2 for 10 minutes and immediately sealed by an aluminum crimp seal containing silicone septum (Fisher scientific, Canada) by means of a hand operated crimper (E-Z Crimper™, VWR, Ontario, Canada). Prior to culture development, the medium was sterilized for 20 min at 121±1° C. About 10% (v/v) (dry cell weight […]) of microbial culture in its exponential phase of growth (OD600nm=1.3-1.5) was used as inoculum for all the experiments conducted in this investigation.
(§2) Set-1, set-4 and set-5 were included as control-1, control-2 and control-3 respectively. All the experiments were carried out in P2 nutrient media as described later in batch fermentation section.
(§3) Batch fermentation was performed in 125 mL serum vials (working volume of 50 mL) at pH 6.7±0.1. The P2 medium was sterilized at 121±1° C. for 20 min. Prior to fermentation, anaerobic conditions for each bottle were maintained by sparging the medium with N2 for 10 minutes and immediately closing with an aluminum crimp seal containing silicon septum (Fisher scientific, Canada) by means of a hand-operated crimper (E-Z Crimper™, VWR, Ontario, Canada). A modified P2 medium, with the following composition, was used for fermentation experiments: Buffer→KH2PO450 g/L, K2HPO450 g/L, ammonium acetate 220 g/L; Minerals→MgSO4*7H2O 20 g/L, MnSO4*H2O 1 g/L, FeSO4*7H2O 1 g/L, NaCl 1 g/L; Vitamins→thiamin 0.1 g/L, biotin 0.001 g/L). Since brewery industry wastes were already enriched with yeast protein, no additional yeast protein nor peptone were supplemented.
(§4) The fermentation was initiated by inoculating the P2 medium with the seed cultures at a ratio of 10% (v:v). […] Fermentation experiments were performed at 37±1° C. with shaking at 150 rpm for 72 h in duplicates. 1 mL of culture broth from each batch assay was used for metabolite analysis. Data described here present average values from duplicate runs for duplicate samples.
(§5) To determine the different metabolites produced during ABE fermentation (i.e. butanol, ethanol, acetone, butyric acid, and acetic acid) liquid samples from each fermentation broth were collected and analyzed using gas chromatography (GC) (GC7890B, Agilent Technologies, USA) equipped with a FID detector and a HP-INNOWax™ column (30 m, 0.25 mm ID, 0.25 μm df). Isobutanol was used as the internal standard. Before injecting the sample (1 mL) in the GC for products analysis, the sample was centrifuged for 5 minutes at 7650×g and the supernatant was filtered by 0.45 μm syringe filter. The GC conditions comprised: helium carrier gas at a flow rate of 1 mL/min with a temperature ramp from the initial temperature of 50° C. to 150° C.

[4] = system: Clostridium beijerinckii NRRL B-466 (CB); assay: Bio-compatibility (solvent toxicity) batch ABE fermentation, CB
Experimental: as §1, §2, §3, §4, §5

[5] = homogenizer rotational speed 100 rpm
[6] = homogenizer rotational speed 200 rpm
[7] = homogenizer rotational speed 250 rpm
[8] = homogenizer rotational speed 300 rpm
[9] = homogenizer rotational speed 400 rpm
[10] = Extraction 1, hydrolysate mimic
[11] = Extraction 2, hydrolysate mimic
[12] = Extraction 3, hydrolysate mimic
[13] = Extraction 4, hydrolysate mimic
[14] = first stage, ratio 2:1, hydrolysate mimic
[15] = simulated synthetic media as well as waste hydrolysate, ex-situ detoxification
[16] = Control-2 (glucose + BIS) + extraction (2:1 mimic:organic solvent) before fermentation
[17] = Set-7 (10 times diluted BIS) + extraction (2:1)
[18] = Set-8 (50 times diluted BIS) + extraction (2:1)

Inhibitor extraction, phase separation by centrifugal force [1, 5]: 97%
Inhibitor extraction, phase separation by separating funnel [1, 5]: 94%
Inhibitor extraction, phase separation by centrifugal force [1, 6]: 96%
Inhibitor extraction, phase separation by separating funnel [1, 6]: 94%
Inhibitor extraction, phase separation by centrifugal force [1, 7]: 97%
Inhibitor extraction, phase separation by separating funnel [1, 7]: 93%
Inhibitor extraction, phase separation by centrifugal force [1, 8]: 95%
Inhibitor extraction, phase separation by separating funnel [1, 8]: 94%
Inhibitor extraction, phase separation by centrifugal force [1, 9]: 97%
Inhibitor extraction, phase separation by separating funnel [1, 9]: 96%
SMILES: COc1cc(/C=C/C(=O)O)ccc1O [Ferulic acid, ferulic acid]
Inhibitory concentration [2]: > 0.3 g/L
Concentration that inhibited butanol production [2]: 1. (>0.3 g/L) inhibited butanol production

SMILES: COc1cc(C=O)cc(OC)c1O [Syringaldehyde, syringaldehyde]
Inhibitor extraction, phase separation by centrifugal force [1, 5]: 100%
Inhibitor extraction, phase separation by separating funnel [1, 5]: 100%
Inhibitor extraction, phase separation by centrifugal force [1, 6]: 100%
Inhibitor extraction, phase separation by separating funnel [1, 6]: 100%
Inhibitor extraction, phase separation by centrifugal force [1, 7]: 100%
Inhibitor extraction, phase separation by separating funnel [1, 7]: 100%
Inhibitor extraction, phase separation by centrifugal force [1, 8]: 100%
Inhibitor extraction, phase separation by separating funnel [1, 8]: 100%
Inhibitor extraction, phase separation by centrifugal force [1, 9]: 100%
Inhibitor extraction, phase separation by separating funnel [1, 9]: 100%
Inhibitory concentration [2]: >0.05 g/L
Concentration that stopped ABE production [2]: 2. (0.3-1.0 g/L) stopped ABE production
Concentration showing strong inhibition on cellulase enzyme activity (cellulase enzyme): 1. (0.05 g/L) showed strong inhibition

Inhibitor extraction, phase separation by centrifugal force [1, 5]: 92%
Inhibitor extraction, phase separation by separating funnel [1, 5]: 90%
Inhibitor extraction, phase separation by centrifugal force [1, 6]: 93%
Inhibitor extraction, phase separation by separating funnel [1, 6]: 91%
Inhibitor extraction, phase separation by centrifugal force [1, 7]: 94%
Inhibitor extraction, phase separation by separating funnel [1, 7]: 93%
Inhibitor extraction, phase separation by centrifugal force [1, 8]: 94%
Inhibitor extraction, phase separation by separating funnel [1, 8]: 93%
Inhibitor extraction, phase separation by centrifugal force [1, 9]: 96%
Inhibitor extraction, phase separation by separating funnel [1, 9]: 93%
SMILES: COc1cc(C(=O)O)ccc1O [Vanillic acid, vanillic acid]
Inhibitory concentration [2]: >1 g/L
Concentration that stopped bio-butanol production [2]: 1. (>1 g/L) stopped bio-butanol

SMILES: CCCCC(CC)COC(=O)CCCCCCCCC(=O)OCC(CC)CCCC (stereo not shown) [bis-(2-ethylhexyl) sebacate]
Ferulic acid removal [1, 10]: 97%
Furfural removal [1, 10]: 79%
HMF removal [1, 10]: 78%
Syringaldehyde removal [1, 10]: 93%
TRS removal [1, 10]: 0%
Vanillic acid removal [1, 10]: 93%
Vanillin removal [1, 10]: 95%
TRS (total reducing sugar) after extraction [1, 10]: 52.00 g/L
Ferulic acid removal [1, 11]: 99%
Furfural removal [1, 11]: 97%
HMF removal [1, 11]: 96%
Syringaldehyde removal [1, 11]: 99%
TRS removal [1, 11]: 0%
Vanillic acid removal [1, 11]: 97%
Vanillin removal [1, 11]: 97%
TRS (total reducing sugar) after extraction [1, 11]: 52.00 g/L
Ferulic acid removal [1, 12]: 100%
Furfural removal [1, 12]: 100%
HMF removal [1, 12]: 100%
Syringaldehyde removal [1, 12]: 100%
TRS removal [1, 12]: 0%
Vanillic acid removal [1, 12]: 100%
Vanillin removal [1, 12]: 100%
TRS (total reducing sugar) after extraction [1, 12]: 52.00 g/L
Ferulic acid removal [1, 13]: 100%
Furfural removal [1, 13]: 100%
HMF removal [1, 13]: 100%
Syringaldehyde removal [1, 13]: 100%
TRS removal [1, 13]: 0%
Vanillic acid removal [1, 13]: 100%
Vanillin removal [1, 13]: 100%
TRS (total reducing sugar) after extraction [1, 13]: 52.00 g/L
Extraction efficiency for phenolic compounds [1, 14]: > 93%
Extraction efficiency towards furan derivatives [1, 14]: 78-79%
Removal of the inhibitors from the mimic synthetic media ([1]; set-10 and set-11 (10 and 50 times diluted BIS), extraction 2:1): > 99%
Extraction of furan derivatives [1, 15]: More than 80%
Extraction of phenolic compounds [1, 15]: more than 95%
Extraction of reducing sugar [1, 15]: almost no extraction
ABE [3, 16]: 13.96 ± 0.3 g/L
Butanol [3, 16]: 10.25 ± 0.5 g/L
ABE [3, 17]: 12.5 ± 0.2 g/L
Butanol [3, 17]: 9.13 ± 0.2 g/L
ABE [3, 18]: 12.2 ± 0.3 g/L
Butanol [3, 18]: 9.1 ± 0.3 g/L
Average increase in bio-butanol production in comparison with control 1/set-1 ([3]; set-9: control 2 after extraction, both bacterial strains): 8-10%
ABE [4, 16]: 13.15 ± 0.3 g/L
Butanol [4, 16]: 9.58 ± 0.2 g/L
ABE [4, 17]: 11.48 ± 0.4 g/L
Butanol [4, 17]: 8.62 ± 0.3 g/L
ABE [4, 18]: 11.0 ± 0.3 g/L
Butanol [4, 18]: 8.4 ± 0.2 g/L
